According to patent publication US20250115600A1, “COVALENT MODIFIERS OF AKT1 AND USES THEREOF” (Terremoto Biosciences, Inc., priority 2022, published 2025):

How the values were obtained:
Assay in all cases: Live cell target engagement (NanoBRET) in HEK293 cells
Format in all cases: cell-based
AKT2 = AKT2 (Homo sapiens (Human), UniProt P31751); conditions: HEK293, 2 hours at 37° C.
AKT1 WT = AKT1 WT (Homo sapiens (Human), UniProt P31749); conditions: HEK293, 2 hours at 37° C.
AKT1 E17K = AKT1 E17K (Homo sapiens (Human), UniProt P31749, E17K); conditions: for IC50: HEK293, 2 hours at 37° C.
Chain of AKT1 E17K (P31749 whole entry E17K): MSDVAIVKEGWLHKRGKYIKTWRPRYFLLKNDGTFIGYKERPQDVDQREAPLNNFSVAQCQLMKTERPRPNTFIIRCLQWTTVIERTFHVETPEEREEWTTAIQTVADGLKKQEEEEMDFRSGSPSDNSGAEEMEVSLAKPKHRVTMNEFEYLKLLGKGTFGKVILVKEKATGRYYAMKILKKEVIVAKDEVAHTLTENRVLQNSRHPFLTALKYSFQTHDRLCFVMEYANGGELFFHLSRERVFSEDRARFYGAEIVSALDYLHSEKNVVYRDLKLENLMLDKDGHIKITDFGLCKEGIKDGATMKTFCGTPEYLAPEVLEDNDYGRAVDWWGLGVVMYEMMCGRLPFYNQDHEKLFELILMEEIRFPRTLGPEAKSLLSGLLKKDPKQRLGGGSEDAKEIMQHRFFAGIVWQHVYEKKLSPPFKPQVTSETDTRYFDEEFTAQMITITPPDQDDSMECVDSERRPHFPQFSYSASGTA

Chain of AKT1 WT (P31749 whole entry): as the sequence (P31749 whole entry E17K) above, with K17E counted along it
Chain of AKT2 (P31751 whole entry): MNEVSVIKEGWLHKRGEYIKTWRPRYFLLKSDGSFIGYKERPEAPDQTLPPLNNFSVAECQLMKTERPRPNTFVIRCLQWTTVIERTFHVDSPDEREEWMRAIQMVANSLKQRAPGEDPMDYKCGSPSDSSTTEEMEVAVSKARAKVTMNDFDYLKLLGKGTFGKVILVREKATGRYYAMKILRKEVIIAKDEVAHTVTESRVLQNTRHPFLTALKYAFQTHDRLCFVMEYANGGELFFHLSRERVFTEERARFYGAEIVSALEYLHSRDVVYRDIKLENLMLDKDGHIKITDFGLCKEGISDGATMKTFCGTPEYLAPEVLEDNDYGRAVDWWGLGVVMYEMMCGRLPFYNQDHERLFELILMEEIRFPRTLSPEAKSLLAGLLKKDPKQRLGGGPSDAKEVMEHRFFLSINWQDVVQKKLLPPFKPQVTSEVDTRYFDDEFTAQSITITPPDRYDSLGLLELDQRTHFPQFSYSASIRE

| Structure (SMILES) | IC50 (AKT2) | IC50 (AKT1 WT) | AKT1 E17K IC50: Selectivity vs AKT1 WT (AKT1 E17K) | AKT1 E17K IC50: Selectivity vs AKT2 (AKT1 E17K) | IC50 (AKT1 E17K) |
| --- | --- | --- | --- | --- | --- |
| Nc1ncccc1-c1nc2cccnc2n1-c1ccc(CNC(=O)c2ccc(O)c(C=O)n2)cc1 [Compound 47, N-(4-(2-(2-aminopyridin-3-yl)-3H-imidazo[4,5-b]pyridin-3-yl)benzyl)-6-formyl-5-hydroxypicolinamide] | > 500 nM | > 500 nM | 1.8 | 3.7 | > 500 nM |
| Nc1ncccc1-c1nc2ccc(-c3ccccn3)nc2n1-c1ccc(CNC(=O)Cc2ccc(C=O)c(O)c2)cc1 [Compound 62, N-({4-[2-(2-aminopyridin-3-yl)-5-(pyridin-2-yl)imidazo[4,5-b]pyridin-3-yl]phenyl}methyl)-2-(4-formyl-3-hydroxyphenyl)acetamide] | > 500 nM | < 100 nM | 2.7 | 47 | < 100 nM |
| Nc1ncccc1-c1nc2ccc(-c3ccccc3)nc2n1-c1ccc(C(=O)NCCc2ccc(C=O)c(O)c2)cc1 [Compound 131, 4-(2-(2-aminopyridin-3-yl)-5-phenyl-3H-imidazo[4,5-b]pyridin-3-yl)-N-(4-formyl-3-hydroxyphenethyl)benzamide] | 100 to 500 nM | < 100 nM | 1.6 | 13 | < 100 nM |
| CC(=O)Nc1c(C=O)ccc(CCNCc2ccc(-n3c(-c4cccnc4N)nc4ccc(-c5ccccc5)nc43)cc2)c1F [Compound 90, N-(3-{2-[({4-[2-(2-aminopyridin-3-yl)-5-phenylimidazo[4,5-b]pyridin-3-yl]phenyl}methyl)amino]ethyl}-2-fluoro-6-formylphenyl)acetamide] | < 100 nM | < 100 nM | 0.65 | 1.6 | < 100 nM |
| CC(NCCc1ccc(C=O)c(O)c1)c1ccc(-n2c(-c3cccnc3N)nc3ccc(-c4ccccc4)nc32)cc1 (stereo not drawn) [Compound 127, 4v-(2-((1-(4-(2-(2-aminopyridin-3-yl)-5-phenyl-3H-imidazo[4,5-b]pyridin-3-yl)phenyl)ethyl)amino)ethyl)-2-hydroxybenzaldehyde] | 100 to 500 nM | < 100 nM | 2.6 | 7.7 | < 100 nM |
| Nc1ncccc1-c1nc2cccnc2n1-c1ccc(CNCCc2ccc(C=O)c(C(F)F)c2)cc1 [Compound 80, 4-{2-[({4-[2-(2-aminopyridin-3-yl)imidazo[4,5-b]pyridin-3-yl]phenyl}methyl)amino]ethyl}-2-(difluoromethyl)benzaldehyde] | > 500 nM | 100 to 500 nM | 0.47 | 2.5 | 100 to 500 nM |
| Nc1ncccc1-c1nc2ccc(-c3cccnc3)nc2n1-c1ccc(CNC(=O)c2ccc(O)c(C=O)c2)cc1 [Compound 71, N-(4-(2-(2-aminopyridin-3-yl)-5-(pyridin-3-yl)-3H-imidazo[4,5-b]pyridin-3-yl)benzyl)-3-formyl-4-hydroxybenzamide] | 100 to 500 nM | < 100 nM | 5.8 | 37 | < 100 nM |
| CC(=O)N(C)C1CCN(c2cccc(-c3ccc4nc(-c5cccnc5N)n(-c5ccc(CNCCc6ccc(C=O)c(O)c6)cc5)c4n3)c2)CC1 [Compound 109, N-(1-{3-[2-(2-aminopyridin-3-yl)-3-[4-({[2-(4-formyl-3-hydroxyphenyl)ethyl]amino}methyl)phenyl]imidazo[4,5-b]pyridin-5-yl]phenyl}piperidin-4-yl)-N-methylacetamide] | < 100 nM | < 100 nM | 0.63 | 0.6 | < 100 nM |
| Nc1ncccc1-c1nc2ccc(Cl)nc2n1-c1ccc(CNCCc2ccc(C=O)c(O)c2)cc1 [Compound 99, 4-{2-[({4-[2-(2-aminopyridin-3-yl)-5-chloroimidazo[4,5-b]pyridin-3-yl]phenyl}methyl)amino]ethyl}-2-hydroxybenzaldehyde] | > 500 nM | 100 to 500 nM | 3.7 | 8.4 | < 100 nM |
| Nc1ncccc1-c1nc2ccc(-c3ccccc3)nc2n1-c1ccc(CNc2cc(-c3ccc(O)c(C=O)c3)ccn2)cc1 [Compound 81, 5-(2-((4-(2-(2-aminopyridin-3-yl)-5-phenyl-3H-imidazo[4,5-b]pyridin-3-yl)benzyl)amino)pyridin-4-yl)-2-hydroxybenzaldehyde] | 100 to 500 nM | 100 to 500 nM | 0.51 | 1.7 | 100 to 500 nM |
| Nc1ncccc1-c1nc2ccc(-n3cccn3)nc2n1-c1ccc(CNC(=O)Cc2ccc(C=O)c(O)c2)cc1 [Compound 35, N-({4-[2-(2-aminopyridin-3-yl)-5-(pyrazol-1-yl)imidazo[4,5-b]pyridin-3-yl]phenyl}methyl)-2-(4-formyl-3-hydroxyphenyl)acetamide] | 100 to 500 nM | < 100 nM | 3.4 | 140 | < 100 nM |
| CN(CCc1ccc(C=O)c(O)c1)C(=O)c1ccc(-n2c(-c3cccnc3N)nc3ccc(-c4ccccc4)nc32)cc1 [Compound 57, 4-[2-(2-aminopyridin-3-yl)-5-phenylimidazo[4,5-b]pyridin-3-yl]-N-[2-(4-formyl-3-hydroxyphenyl)ethyl]-N-methylbenzamide] | > 500 nM | 100 to 500 nM | 2.7 | 13 | 100 to 500 nM |
| Nc1ncccc1-c1nc2ccc(-c3cccnc3)nc2n1-c1ccc(CNC(=O)Cc2ccc(C=O)c(O)c2)cc1 [Compound 68, N-(4-(2-(2-aminopyridin-3-yl)-5-(pyridin-3-yl)-3H-imidazo[4,5-b]pyridin-3-yl)benzyl)-2-(4-formyl-3-hydroxyphenyl)acetamide] | > 500 nM | < 100 nM | 4 | 150 | < 100 nM |
| Nc1ncccc1-c1nc2ccc(-c3ccccc3)nc2n1-c1ccc(CNCCc2ccc(O)c(C=O)c2)cc1 [Compound 135, 5-(2-((4-(2-(2-aminopyridin-3-yl)-5-phenyl-3H-imidazo[4,5-b]pyridin-3-yl)benzyl)amino)ethyl)-2-hydroxybenzaldehyde] | < 100 nM | < 100 nM | 0.16 | 0.72 | < 100 nM |
| Nc1ncccc1-c1nc2ccc(C3CC3)nc2n1-c1ccc(CNCCc2ccc(C=O)c(O)c2)cc1 [Example 16, 4-{2-[({4-[2-(2-aminopyridin-3-yl)-5-cyclopropylimidazo[4,5-b]pyridin-3-yl]phenyl}methyl)amino]ethyl}-2-hydroxybenzaldehyde] | > 500 nM | 100 to 500 nM | 2.4 | 41 | < 100 nM |
| Nc1ncccc1-c1nc2ccc(-c3ccccc3)nc2n1-c1ccc(CNC(=O)c2ccc(O)c(C=O)c2F)cc1 [Example 15, N-(4-(2-(2-aminopyridin-3-yl)-5-phenyl-3H-imidazo[4,5-b]pyridin-3-yl)benzyl)-2-fluoro-3-formyl-4-hydroxybenzamide] | > 500 nM | 100 to 500 nM | 2 | 13 | < 100 nM |
| Nc1ncccc1-c1nc2ccc(N3CCOCC3)nc2n1-c1ccc(CNC(=O)c2ccc(O)c(C=O)c2)cc1 [Example 3, N-(4-(2-(2-aminopyridin-3-yl)-5-morpholino-3H-imidazo[4,5-b]pyridin-3-yl)benzyl)-3-formyl-4-hydroxybenzamide] | > 500 nM | 100 to 500 nM | 2.2 | 36 | 100 to 500 nM |
| Nc1ncccc1-c1nc2cc(-c3ccccc3)cnc2n1-c1ccc(CNCCc2ccc(C=O)c(O)c2)cc1 [Compound 124, 4-(2-((4-(2-(2-aminopyridin-3-yl)-6-phenyl-3H-imidazo[4,5-b]pyridin-3-yl)benzyl)amino)ethyl)-2-hydroxybenzaldehyde] | > 500 nM | > 500 nM | 3.1 | 13 | 100 to 500 nM |
| Nc1ncccc1-c1nc2ccc(-c3cccc(N4CCOCC4)c3)nc2n1-c1ccc(CNC(=O)Cc2ccc(C=O)c(O)c2Cl)cc1 [Example 13, N-({4-[2-(2-aminopyridin-3-yl)-5-[3-(morpholin-4-yl)phenyl]imidazo[4,5-b]pyridin-3-yl]phenyl}methyl)-2-(2-chloro-4-formyl-3-hydroxyphenyl)acetamide] | < 100 nM | < 100 nM | 1.2 | 3 | < 100 nM |
| Nc1ncccc1-c1nc2ccc(-c3ccccc3)nc2n1-c1ccc(CCNCc2ccc(C=O)c(O)c2F)cc1 [Compound 40, 4-(((4-(2-(2-aminopyridin-3-yl)-5-phenyl-3H-imidazo[4,5-b]pyridin-3-yl)phenethyl)amino)methyl)-3-fluoro-2-hydroxybenzaldehyde] | 100 to 500 nM | < 100 nM | 2.2 | 6.7 | < 100 nM |
| Nc1ncccc1-c1nc2ccc(NC3CC3)nc2n1-c1ccc(CNC(=O)Cc2ccc(C=O)c(O)c2)cc1 [Compound 25, N-({4-[2-(2-aminopyridin-3-yl)-5-(cyclopropylamino)imidazo[4,5-b]pyridin-3-yl]phenyl}methyl)-2-(4-formyl-3-hydroxyphenyl)acetamide] | > 500 nM | < 100 nM | 4.3 | 120 | < 100 nM |
